From patent publication US20230310334A1, “LIPID NANOPARTICLE” (SHENZHEN SHENXIN BIOTECHNOLOGY CO., LTD., priority 2020, published 2023)

Test system: luciferase mRNA (Fluc mRNA) expression
Assay: Luciferase mRNA delivery performance in vivo of lipid nanoparticles prepared from amino lipid compounds (IVIS imaging)
Parameters: species or system BALB/c mice
Settings: for Average fluorescence intensity (subcutaneous) / Average fluorescence intensity (intramuscular) / Average fluorescence intensity (tail vein): Fluc mRNA LNP, 0.5 mg/kg, imaging 6 hours after injection, male BALB/c mice; for Average fluorescence intensity (subcutaneous) / Average fluorescence intensity (intramuscular): preparation process I (DOPE); for Average fluorescence intensity (tail vein): preparation process II (DSPC); for delivery capacity after introduction of the alkynyl group: in vivo delivery, compared with corresponding amino lipid compounds without alkynyl group (36, 37)
Method: Example 40: Evaluation of Luciferase mRNA Delivery Performance In Vivo of Lipid Nanoparticles Prepared from Amino Lipid Compounds
Preparation of lipid nanoparticles:
Preparation process I: The amino lipid compound described in the present invention and DOPE, cholesterol, PEG2000-DMG were mixed and dissolved in absolute ethanol in a molar ratio of 45:10:42.5:2.5. Two microinjection pumps were used, and the ratio of ethanol solution to sodium acetate solution (50 mM, pH=4.0) was controlled to be 1:3. A crude solution of lipid nanoparticles was prepared in a micro flow channel chip, then dialyzed for 6 hours with 1×PBS at a controlled temperature of 4° C. by using a dialysis cassette (Fisher, MWCO 20,000), and filtered with a 0.22 μm microporous filter membrane before use. The mass ratio of the amino lipid compound to luciferase mRNA (Fluc mRNA) was about 10:1. The administration route included subcutaneous and intramuscular injections.
Preparation process II: the molar ratio of amino lipid compound to DSPC, cholesterol, PEG2000-DMG was 50:10:38.5:1.5, and the preparation process was identical to the preparation process I. The administration route was tail vein administration.
Animal preparation: 6-week-old male BALB/c mice with body weights of about 20 g were selected, and fed in an SPF-grade feeding room. Animal experiments were strictly carried out according to the guidelines of the national health institution and the requirements of animal ethics. In vivo delivery: 9 mice were randomly selected per group and injected with lipid nanoparticles at a dose of 0.5 mg/kg by three administration routes: subcutaneous, intramuscular, and tail vein, respectively (three animals per administration route). After 6 hours, […] of 10 mg/mL potassium […] was injected into each mouse via the tail vein, and after 10 minutes, the mice were placed under an in vivo imaging system (IVIS-200, Xenogen), and the total fluorescence intensity of each mouse was observed and recorded by photographing. The expression intensities of Fluc mRNA delivered by the three administration routes of representative amino lipid compounds were shown in Tables 1-3. DLin-MC3 was used as a control.

Compound | Average fluorescence intensity (subcutaneous) | Average fluorescence intensity (intramuscular) | Average fluorescence intensity (tail vein) | delivery capacity after introduction of the alkynyl group
CCCCC#CCOC(=O)CCCCCCCN(CCCO)CCCCCCCC(=O)OC(CCCCCCCC)CCCCCCCC [Compound 1] | 1.4E+07 | – | – | –
CCCCCC#CCOC(=O)CCCCCCCN(CCCO)CCCCCCCC(=O)OC(CCCCCCCC)CCCCCCCC [Compound 2] | 1.1E+07 | 2.4E+06 | – | –
CCCCCCC#CCOC(=O)CCCCCCCN(CCCO)CCCCCCCC(=O)OC(CCCCCCCC)CCCCCCCC [Compound 3] | 2.1E+06 | 2.1E+06 | 2.1E+07 | –
CCCCCCCC#CCOC(=O)CCCCCCCN(CCCO)CCCCCCCC(=O)OC(CCCCCCCC)CCCCCCCC [Compound 4] | 2.1E+05 | 2.1E+06 | 2.9E+07 | –
CCCCC#CCCOC(=O)CCCCCCCN(CCCO)CCCCCCCC(=O)OC(CCCCCCCC)CCCCCCCC [Compound 5] | 7.1E+06 | – | – | –
CCCCCC#CCCOC(=O)CCCCCCCN(CCCO)CCCCCCCC(=O)OC(CCCCCCCC)CCCCCCCC [Compound 6] | 2.1E+06 | 2.1E+05 | – | –
CCCCCCC#CCCOC(=O)CCCCCCCN(CCCO)CCCCCCCC(=O)OC(CCCCCCCC)CCCCCCCC [Compound 7] | 2.1E+05 | 4.1E+05 | 8.1E+06 | –
CCCC#CCCCOC(=O)CCCCCCCN(CCCO)CCCCCCCC(=O)OC(CCCCCCCC)CCCCCCCC [Compound 8] | 7.1E+06 | 2.1E+07 | 6.1E+06 | –
CCCCC#CCCCOC(=O)CCCCCCCN(CCCO)CCCCCCCC(=O)OC(CCCCCCCC)CCCCCCCC [Compound 9] | 2.7E+06 | 5.1E+06 | 2.8E+07 | –
CCCCCC#CCCCOC(=O)CCCCCCCN(CCCO)CCCCCCCC(=O)OC(CCCCCCCC)CCCCCCCC [Compound 10] | 3.1E+05 | 2.1E+05 | 2.5E+07 | –
CCCCCCC#CCCCOC(=O)CCCCCCCN(CCCO)CCCCCCCC(=O)OC(CCCCCCCC)CCCCCCCC [Compound 11] | 2.1E+05 | 2.1E+06 | 5.1E+07 | –
CCCCCC#CCOC(=O)CCCCCCCN(CCO)CCCCCCCC(=O)OC(CCCCCCCC)CCCCCCCC [Compound 12] | 3.2E+07 | 2.1E+06 | – | –
CCCCCCC#CCOC(=O)CCCCCCCN(CCO)CCCCCCCC(=O)OC(CCCCCCCC)CCCCCCCC [Compound 13] | 2.6E+07 | 2.1E+06 | – | –
CCCCCCC#CCCOC(=O)CCCCCCCN(CCO)CCCCCCCC(=O)OC(CCCCCCCC)CCCCCCCC [Compound 14] | 2.1E+06 | 4.1E+06 | 1.1E+07 | –
CCCCC#CCCOC(=O)CCCCCCCN(CCCCO)CCCCCCCC(=O)OC(CCCCCCCC)CCCCCCCC [Compound 15] | 3.1E+05 | 2.8E+07 | – | –
CCCCCC#CCCOC(=O)CCCCCCCN(CCCCO)CCCCCCCC(=O)OC(CCCCCCCC)CCCCCCCC [Compound 16] | 2.7E+06 | 1.4E+07 | – | –
CCCCC#CCCCOC(=O)CCCCCCCN(CCCCO)CCCCCCCC(=O)OC(CCCCCCCC)CCCCCCCC [Compound 17] | 2.5E+06 | 2.7E+06 | 5.1E+07 | significantly enhanced

Compound | Average fluorescence intensity (subcutaneous) | Average fluorescence intensity (intramuscular) | Average fluorescence intensity (tail vein) | delivery capacity after introduction of the alkynyl group
CCCCC#CCCCOC(=O)CCCCCCCN(CCCCCCCC(=O)OC(CCCCCCCC)CCCCCCCC)C1CC(O)C1 (centres unmarked) [Compound 18] | – | – | 7.1E+07 | –
CCCCCC#CCCCOC(=O)CCCCCCCN(CCCCCCCC(=O)OC(CCCCCCCC)CCCCCCCC)C1CCC(O)C1 (centres unmarked) [Compound 19] | – | 2.1E+05 | 9.1E+06 | –
CCCCCC#CCCCOC(=O)CCCCCCCN(CCCCCCCC(=O)OC(CCCCCC)CCCCCCCC)C1CCC(O)C1 (centres unmarked) [Compound 20] | 3.7E+07 | 5.2E+05 | – | –
CCCCCC#CCCCOC(=O)CCCCCCCN(CCCCCCCC(=O)OC(CCCCCCCC)CCCCCCCC)C1CCC(O)CC1 (centres unmarked) [Compound 21] | 4.1E+06 | 1.1E+07 | – | –
CCCCC#CCCCOC(=O)CCCCN(CCCCO)CCCCCCCC(=O)OC(CCCCCCCC)CCCCCCCC [Compound 22] | 2.8E+07 | 3.1E+05 | – | –
CCCCC#CCCCOC(=O)CCCCCCCCCN(CCCCO)CCCCCCCC(=O)OC(CCCCCCCC)CCCCCCCC [Compound 23] | – | 2.7E+05 | 6.1E+07 | –
CCCCC#CCCCOC(=O)CCCCCCCCCCCCCN(CCCCO)CCCCCCCC(=O)OC(CCCCCCCC)CCCCCCCC [Compound 24] | – | 2.1E+05 | 7.8E+06 | –
CCCCC#CCCCOC(=O)CCCCCCCCCCCCCN(CCCO)CCCCCCCC(=O)OC(CCCC)CCCC [Compound 25] | 2.6E+07 | 2.1E+05 | – | –
CCCCC#CCCCOC(=O)CCCCCCCCCCCCCN(CCCO)CCCCCCCC(=O)OC(CCCC)CCCCCC (centres unmarked) [Compound 26] | 1.7E+06 | 6.1E+07 | – | –
CCCCC#CCCCOC(=O)CCCCN(CCCO)CCCCCCCC(=O)OCC(CCCCCC)CCCCCCCC (centres unmarked) [Compound 28] | 2.1E+06 | 6.1E+07 | – | –
CCCCCCCCCC#CC(=O)OCCCCCCCN(CCCO)CCCCCCCOC(=O)C(CCCCCC)CCCCCCCC (centres unmarked) [Compound 29] | 8.1E+06 | 1.8E+07 | – | –
CCCC#CCCCOC(=O)CCCCCCCN(CCCC#N)CCCCCCCC(=O)OC(CCCCCCCC)CCCCCCCC [Compound 30] | 7.1E+06 | 1.1E+07 | – | –
CCCCC#CCCCOC(=O)CCCCCCCN(CCCCCCCC(=O)OC(CCCCCCCC)CCCCCCCC)CCCN(C)C [Compound 31] | 5.1E+05 | 1.5E+07 | – | significantly enhanced
CCCC#CCCCOC(=O)CCCCCCCN(CCCCCCCC(=O)OC(CCCCCCCC)CCCCCCCC)CCCN1CCOCC1 [Compound 32] | 7.1E+05 | 2.8E+07 | – | –
CCCCC#CCCCOC(=O)CCCCCCCN(CCCCCCCC(=O)OC(CCCCCCCC)CCCCCCCC)CCCOC(=O)CCCCC [Compound 33] | 3.1E+06 | 1.1E+07 | – | –
CCCCC#CCCCOC(=O)CCCCCCCN(CCCCCCCC(=O)OC(CCCCCCCC)CCCCCCCC)CCCNC(=O)CCCCC [Compound 34] | 5.3E+05 | 4.8E+06 | – | –
